Assay results reported in PubChem BioAssay (NCI).
Several values for one entry are separate records, joined by “and”; a condition that tells them apart may be missing. Identical values can stand only once.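 Results reflect a 48-hour exposure of cells in 96-well plates to compound at five concentrations. GI50 = concentration required for 50% inhibition of growth. The concentration for full growth arrest is given as TGI.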

System: MDA-MB-468 breast
Experiment: NCI-60 cell line screen, 48 h

SMILES | GI50 | TGI
O=C(Nc1cc(C(F)(F)F)cc(C(F)(F)F)c1)c1cc(Cl)ccc1O | 195 nM and 238 nM | 0.715 µM and 0.799 µM
COc1cnc2c(c1)C(=O)c1c-2n(CCCNC2=NCCS2)c(=O)c2cc([N+](=O)[O-])ccc12 | 28.3 nM | 1.53 µM
C[n+]1c(/C=C/c2c(O)ccc3ccccc23)ccc2ccccc21 | 1460 nM | 7.08 µM
NC(=O)c1c(NC(=O)c2ccccc2)sc2c1CCC(=O)C2 | 2460 nM | 6.59 µM
Nc1ncc(-c2ccc3ncnc(Nc4ccc(F)c(Cl)c4)c3c2)cn1 | 229 nM | 0.833 µM
CCOC(=O)Nc1cc2c(c(N)n1)N=C(c1ccccc1)CO2 | 42.7 nM | 0.394 µM
COc1cc(Cl)cc(-c2nn(-c3cccc(NC(=O)c4ccc(N5CCOCC5)c(C(F)(F)F)c4)c3)cc2-c2ccncc2)c1 | 12100 nM | > 100 µM
C[C@@H](Nc1c(C#N)cnc2ccc(-c3cnc(Cl)c(NS(C)(=O)=O)c3)cc12)c1ccccc1 | 74.5 nM | 1.23 µM
CCn1c(O)c(/C=N/NC(=O)C(C)c2ccc(CC(C)C)cc2)sc1=S (configuration not stated) | 378 nM | 12 µM
NC(N)=N/N=C/c1c(Cl)cccc1Cl | 12400 nM | 26.5 µM
N=c1c2c(-c3ccccc3)c(-c3ccccc3)n(Cc3ccccc3)c2ncn1C1CCC(O)CC1 (configuration not stated) | 631 nM | 3.23 µM
Clc1cc2c(c(CSc3nc4ccccc4n4cccc34)c1)OCOC2 | 2160 nM | > 100 µM
CCOC(=O)N[C@H]1CCc2cc(OC)c(OC)c(OC)c2-c2ccc(SC)c(=O)cc21 | < 10 nM | > 21.3 µM
CN1CCN(c2ccc(Nc3cc(-c4cccc(-n5ccc6cc(C7CC7)cc(F)c6c5=O)c4CO)cn(C)c3=O)nc2)CC1 | 3150 nM | 17.1 µM
O=[N+]([O-])c1ccc(-c2nnc(SCc3ccc(O)c4ncccc34)n2-c2ccccc2)cc1 | 577 nM | 4.46 µM
C[C@@H]1C[C@@H]([C@@H](CC2CC(=O)NC(=O)C2)OC(=O)CC(=O)c2ccccc2)C(=O)[C@@H](C)C1 | 1170 nM | > 100 µM
COc1cnc2c(c1)C(=O)c1c-2n(CCCN2CCOCC2)c(=O)c2cc(Cl)ccc12 | 183 nM | 0.544 µM
COc1ccc(-c2nnc3n(C)c(=O)c4ccccc4n23)cc1N | 2330 nM | > 100 µM
COc1ccc2nc3ccccc3c(NCc3ccc(F)cc3)c2c1 | 1070 nM | 2.93 µM
COC(=O)c1c2c(c(C)[n+]([O-])c1C)C(=O)C=C(NCc1ccc(F)cc1)C2=O | 284 nM | 0.978 µM
O=C(Nc1ccc(Br)cc1F)c1cc(Cl)ccc1O | 871 nM | 4.78 µM

SMILES | GI50 | TGI
O=C(/C=C/c1ccc[nH]1)c1ccc(-n2ccc(C(F)(F)F)n2)cc1 | > 54600 nM | > 100 µM
Nc1ncn([C@@H]2O[C@H](CO)[C@@H](O)[C@H]2O)c(=O)n1 | 1030 nM | 5.34 µM
CC(=O)ON1CCCC(P(=O)(OCCSC(=O)C(C)(C)C)OCCSC(=O)C(C)(C)C)C1=O (configuration not stated) | 2670 nM | 23.6 µM
CCN1CCN(c2cc(C)c3cc(NC(=O)c4ccc(OC)c(OC)c4)ccc3n2)CC1 | 17700 nM | > 100 µM
CNCCOC(=O)/C=C1\CC[C@H]2[C@@H]([C@@H](O)C(=O)[C@@H]3[C@]2(C)CC[C@H](O)[C@]3(C)C(=O)OC)[C@H]1C | 1440 nM | 3.69 µM
N#Cc1nn(-c2cc(=O)[nH]c3ccc(Cl)cc23)c(N)c1C#N | > 100000 nM | > 100 µM
O=C(NC[C@H](O)CN1CCc2ccccc2C1)c1cc(NC2COC2)ncn1 | 4250 nM | 24.5 µM
Cc1cc(N[C@@H]2CCC[C@H](Nc3ccnc4cc(Cl)ccc34)C2)nc(N2CCCCCC2)n1 | 1400 nM | 3.11 µM
COC(=O)[C@]12CC[C@@H](C)[C@H](C)[C@@H]1C1=CC[C@@H]3[C@@]4(C)C[C@@H](O)[C@H](O)[C@@](C)(CO)C4=CC[C@@]3(C)[C@]1(C)CC2 | 14200 nM | 29.7 µM
Cc1nc(Nc2cccnc2)sc1C(=O)/C=C/c1ccc(F)cc1 | 3220 nM | 11.1 µM
COc1cc(N=Nc2ccc(O)c3ncccc23)c2ncccc2c1 | 2270 nM | 6.64 µM
Cc1nnc(Nc2ccc(NC(=O)Nc3ccc(Cl)cc3)cc2)c2ccccc12 | 2840 nM | 7.43 µM
CN(C)CC[C@H](CSc1ccccc1)Nc1ccc(S(=O)(=O)NC(=O)c2ccc(N3CCN(Cc4ccccc4-c4ccc(Cl)cc4)CC3)cc2)cc1[N+](=O)[O-] | 1380 nM | 3.65 µM
O=C(Cc1ccc(F)c(Cl)c1)Nc1cc(C2(C(F)(F)F)CC2)nn1CC1CCCCC1 | 2680 nM | 9.28 µM
CC(C)(/C=C(\C#N)C(=O)N1CCC[C@@H](n2nc(-c3ccc(Oc4ccccc4)cc3F)c3c(N)ncnc32)C1)N1CCN(C2COC2)CC1 | 3630 nM | 14.9 µM
O=c1oc2ccc(-c3ccc(F)cc3F)cc2c(=O)n1-c1cccc(C(F)(F)F)c1 | 2280 nM and 1130 nM | 5.83 µM and 3.43 µM
CCc1cc(OC(=O)N2CCC(N3CCCCC3)CC2)ccc1Nc1cc(-c2ccc(-n3cccn3)cc2)[nH]n1 | 1740 nM | 3.65 µM
CC(NCCC(c1ccccc1)c1ccccc1)c1ccccc1 (configuration not stated) | 1300 nM | 2.64 µM
CN(C)CCCNc1c2ccc(Cl)cc2nc2c1oc1ccc(Cl)cc12 | 8020 nM | 21.8 µM
CN(C)C1CCN(C(=O)c2ccc(NC(=O)Nc3ccc(-c4nc(N5CCOCC5)c5cccn5n4)cc3)cc2)CC1 | 18.6 nM | 0.0866 µM
